Patent US7094787B2, “Compositions for regulating desire for smoking” (Taiyo Kagaku Co., Ltd., priority 2000, dated 2006)

Test system: mice
Type: in vivo
Conditions: oral administration at 5 g/kg weight
Source text: The composition of the present invention is based on action for suppressing the craving for smoking that has been found for the theanine for the first time. The theanine has been known to be a main ingredient of sapidity in tea and used as a food additive for the sapidity. […] There is no limitation in an amount of addition based on the Food Hygiene Law. Further, unlike a conventional nicotine preparation, since there is no dependence, the composition of the present invention can suppress the craving for smoking safely and effectively.

CCNC(=O)CC[C@H](N)C(=O)O [theanine, γ-glutamyl ethylamide]
death in acute toxicity test: no case of death
